# Test system: HDM-specific T cells expanded from PBMCs of HDM-allergic individuals
# Assay: T cell reactivity of peptides: IFN/IL-5 ELISPOT on in vitro expanded HDM-specific T cells
# Assay type: cell-based, human
# Details: for SFC/donor: individual peptides 10 μg/mL; for % responder: percentage of donors that produced a response against the peptide, 10 μg/mL
# Method: Each sequence of an “L” cluster was aligned separately using the MEGA software tool with ClustalW. Fifteen-mer peptides overlapping by 10 amino acids were generated and the last 15-mer peptide was added when the sequence length was not divisible by 5, 14,783 unique peptides remained.
# HLA class II binding predictions optimized for global coverage were performed for the seven class II alleles (HLA-DRB1*03:01, HLA-DRB1*07:01, HLA-DRB1*15:01, HLA-DRB3*01:01, HLA-DRB3*02:02, HLA-DRB4*01:01 and HLA-DRB5*01:01) using the standalone version of the IEDB class II binding prediction tool. The median consensus percentile rank was estimated from the consensus percentile ranks for the seven alleles. Further, peptides with more than ten overlapping amino acids, which appeared because several occurrences of some sequence regions were repeated multiple times in the same sequence, were eliminated (e.g. “[…]” was repeated seven times in one sequence.) Variant peptides were also removed, retaining the better peptide based on the median consensus percentile rank and conservation among the sequences within its respective cluster. Peptides with median consensus percentile rank ≤10.0 and conserved in ≥35% of sequences in the same cluster were finally selected, also including additional selected peptides chosen to maximize DRB1 allele coverage, for a grand total of 2,589 peptides.
# Peptides were purchased from Mimotopes (Clayton, Victoria, Australia) or A and A (San Diego, Calif.) as crude material on a small (1-mg) scale. Individual peptides were resuspended in DMSO at a final concentration of 40 mg/mL. Peptide “megapools” of 30-65 peptides/pool were generated. Following lyophilization, each pool was reconstituted in DMSO so that each peptide was present at a concentration of 4 mg/mL. To facilitate deconvolution of positive megapools, each megapool was further broken down in 2-6 “mesopools” (259 mesopools in total), each containing 8-14 peptides. Each mesopool was then deconvoluted to identify individual positive peptides. To avoid dimerization and polymerization of peptides by intra- and intermolecular disulfide bond formation between cysteine residues, this amino acid were in some instances substituted by a serine residue in the peptides. Such peptides are herein marked with an asterisk (*).
# PBMCs from European HDM-allergic individuals were recruited in the Copenhagen region (defined by clinical history of allergy to house dust mite and specific IgE to group 1 and group 2 major allergens from Der p and/or Der f and with measured specific IgE (CAP) >0.7 kU/L towards Der p/f 1 or Der p/f 2. In addition, PBMCs from 10 US HDM-allergic individuals were recruited in San Diego (defined by Der p extract IgE titers greater than 0.35 kUA/L). PBMCs were isolated from whole blood by density gradient centrifugation according to manufacturers' instructions (Ficoll-Hypaque, Amersham Biosciences, Uppsala, Sweden). Der p- and Der f-specific extract IgE titers were determined using the ImmunoCAP system (Thermo Fisher, Uppsala, Sweden). In a separate series of experiments, pooled plasma from 10 European and 10 American HDM atopic individuals from the San Diego region, respectively, was utilized to run 2D immunoblots to elucidate IgE and IgG reactivity towards the proteins, which had at least one peptide with positive T cell response.
# HDM-specific T cells were expanded in vitro. Briefly, PBMCs from HDM-allergic individuals were stimulated with HDM extract (5 μg/mL) and expanded over 14-17 days with IL-2 (added every 3 days). Cells were harvested on day 14, restimulated with HDM extract (5 μg/mL), individual peptides (10 μg/mL) or peptide pools (5 μg/mL) and screened for […]/IL-5-production by ELISPOT. Criteria for positivity were 100 or 20 spot forming cells (SFCs) per 10^6 PBMCs for peptide pools or single peptides, respectively, p<0.05, and a stimulation index >2.
Substance,SFC/donor [SFC/donor],% responder [%]
97 (NATEYWMDMFAEYHK; Immunogenic fragment) [compound 97],227,25
98 (WMDMFAEYHKTIAFD; Immunogenic fragment) [compound 98],8,5
99 (AEYHKTIAFDGAWLD; Immunogenic fragment) [compound 99],24,15
100 (TLRHKTLCMTARHYN; Immunogenic fragment) [compound 100],12,10
101 (RHYNDQLHYNLHNLY; Immunogenic fragment) [compound 101],10,5
102 (QLHYNLHNLYGFQEA; Immunogenic fragment) [compound 102],14,10
103 (QLHYNLHNLYSLSMA; Immunogenic fragment) [compound 103],69,5
104 (LHNLYSLSMAMATNA; Immunogenic fragment) [compound 104],29,10
105 (SLSMAMATNAALTKL; Immunogenic fragment) [compound 105],9,5
106 (AALTKLNKRPFIISR; Immunogenic fragment) [compound 106],14,10
107 (NEALKTTLNKRPFII; Immunogenic fragment) [compound 107],9,5
108 (NKRPFIISRATAPGH; Immunogenic fragment) [compound 108],146,5
109 (HWNGDILSDWSSMRW; Immunogenic fragment) [compound 109],88,25
110 (ILSDWSSMRWTIPSI; Immunogenic fragment) [compound 110],36,30
111 (SSMRWTIPSILNFNM; Immunogenic fragment) [compound 111],19,10
112 (PSILNFNLFGVPMIG; Immunogenic fragment) [compound 112],4,5
113 (LCIRWYQLGAFYSFA; Immunogenic fragment) [compound 113],40,15
114 (YQLGAFYSFARNHND; Immunogenic fragment) [compound 114],35,15
115 (AFYSFVRNHNTDNAI; Immunogenic fragment) [compound 115],15,20
116 (LGESVIRAARSSLQY; Immunogenic fragment) [compound 116],30,15
117 (IRAARSSLQYRYRFL; Immunogenic fragment) [compound 117],20,20
118 (SSLQYRYRFLAHLYT; Immunogenic fragment) [compound 118],37,20
119 (RYRFLAHLYTLFYHV; Immunogenic fragment) [compound 119],158,10
120 (AHLYTLFYHVHKNGG; Immunogenic fragment) [compound 120],8,5
121 (DIETQFMWGDSMLIA; Immunogenic fragment) [compound 121],8,5

Substance,SFC/donor [SFC/donor],% responder [%]
122 (FMWGDSMLIAPILYP; Immunogenic fragment) [compound 122],2,5
123 (YDDIDYVFVRGGSII; Immunogenic fragment) [compound 123],149,30
124 (DINYVFFRSGSIIPI; Immunogenic fragment) [compound 124],20,10
125 (FFRSGSIIPIQGPQN; Immunogenic fragment) [compound 125],5,5
126 (TQNINFINILGVPKL; Immunogenic fragment) [compound 126],72,15
127 (SQHLGYQTNQSIIIL; Immunogenic fragment) [compound 127],7,10
128 (YQTNQSIIILEILGI; Immunogenic fragment) [compound 128],10,10
129 (INILGVPKLPTSFKL; Immunogenic fragment) [compound 129],24,20
130 (SIIFDGKPYYQFIYT; Immunogenic fragment) [compound 130],55,5
131 (PRIIRFNYDEQTNIL; Immunogenic fragment) [compound 131],160,25
132 (GKPYYQFIYTTNNML; Immunogenic fragment) [compound 132],44,15
133 (QFIYTTNNMLIIQTK; Immunogenic fragment) [compound 133],47,5
134 (TNNMLIIQTKLSIFN; Immunogenic fragment) [compound 134],4,5
135 (IIQTKLSIFNDNDKS; Immunogenic fragment) [compound 135],3,5
136 (DKSKKIHYQFEWKFN; Immunogenic fragment) [compound 136],2,5
137 (HDNTELMKTKDFLLI; Immunogenic fragment) [compound 137],41,10
138 (YHNLIGLPAMPPFWS; Immunogenic fragment) [compound 138],3,5
139 (ELNFKVYEDAAALAK; Immunogenic fragment) [compound 139],16,10
140 (EDGLIYNIASREKAD; Immunogenic fragment) [compound 140],55,5
141 (KHEIFVVADLIDRKS; Immunogenic fragment) [compound 141],7,5
142 (DKKFLFNTAVLFDRQ; Immunogenic fragment) [compound 142],22,10
143 (FNTAVLFDRQGKLLG; Immunogenic fragment) [compound 143],11,10
144 (RYHKMHLFGEMTMNI; Immunogenic fragment) [compound 144],10,10
145 (PPKPELLVIDTELGR; Immunogenic fragment) [compound 145],228,30
146 (LLVIDTELGRLGMQI; Immunogenic fragment) [compound 146],54,20

# — patent US10556936B2, “Immunogenic proteins and fragments thereof from allergenic mites” (ALK-ABELLÓ A/S, priority 2016, dated 2020)
